# Laboratory results: the supplement of paper PMC4858399
# Tests used:
# [1] = system: Caenorhabditis elegans N2; assay: mean nematode size ln(EXT) after 48 h, plate-adjusted (DMSO control set to 6) (ln(EXT), control-adjusted); higher = larger nematodes / less growth inhibition; conditions: exposure time 48 h
# Outline: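 Chemical at 0.5–200 µM was tested on synchronised C. elegans N2 L1 larvae grown for 48 h at 20°C in K-medium with killed OP50 and 1% DMSO. Per-worm Biosort extinction, cleared of debris by a growth model, was natural-logged and averaged per well to give mean size. Plates were normalised by subtracting the vehicle control mean and adding 6.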
# [2] = system: Caenorhabditis elegans N2; assay: lowest effective concentration for larval growth inhibition (size below effect threshold); higher = less potent; conditions: exposure time 48 h
# Outline: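 L1 larvae of C. elegans N2 (50 per 96-well) were grown in K-medium with killed bacteria and 1% DMSO, with the chemical at 0.5, 1, 5, 10, 50, 100 or 200 µM, for 48 h at 20°C. Per-worm extinction from the Biosort stood for size and was log-transformed into well means. For each chemical, the lowest effective concentration is the first dose where plate-adjusted mean size falls under the threshold and stays under it at the higher doses, using a threshold of 5.665.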
smiles,measurement,setting,value
Nc1ccc(-c2ccc(N)cc2)cc1 [Benzidine],mean nematode size ln(EXT) (ln),[1]; 0.5 µM,6.06
same,mean nematode size ln(EXT) (ln),[1]; 1 µM,6.02
same,mean nematode size ln(EXT) (ln),[1]; 5 µM,5.91
same,mean nematode size ln(EXT) (ln),[1]; 10 µM,5.98
same,mean nematode size ln(EXT) (ln),[1]; 50 µM,5.81
same,mean nematode size ln(EXT) (ln),[1]; 100 µM,5.75
same,mean nematode size ln(EXT) (ln),[1]; 200 µM,5.97
same,lowest effective concentration,[2],> 200 µM
O=C(O)c1ccccc1 [Benzoic acid],mean nematode size ln(EXT) (ln),[1]; 0.5 µM,5.63
same,mean nematode size ln(EXT) (ln),[1]; 1 µM,5.77
same,mean nematode size ln(EXT) (ln),[1]; 5 µM,5.73
same,mean nematode size ln(EXT) (ln),[1]; 10 µM,5.77
same,mean nematode size ln(EXT) (ln),[1]; 50 µM,5.72
same,mean nematode size ln(EXT) (ln),[1]; 100 µM,5.73
same,mean nematode size ln(EXT) (ln),[1]; 200 µM,6.04
same,lowest effective concentration,[2],> 200 µM
OCc1ccccc1 [Benzyl alcohol],mean nematode size ln(EXT) (ln),[1]; 0.5 µM,5.85
same,mean nematode size ln(EXT) (ln),[1]; 1 µM,5.94
same,mean nematode size ln(EXT) (ln),[1]; 5 µM,5.9
same,mean nematode size ln(EXT) (ln),[1]; 10 µM,5.84
same,mean nematode size ln(EXT) (ln),[1]; 50 µM,5.95
same,mean nematode size ln(EXT) (ln),[1]; 100 µM,5.93
same,mean nematode size ln(EXT) (ln),[1]; 200 µM,5.81
same,lowest effective concentration,[2],> 200 µM
O=C(O)c1ccccc1C(=O)OCc1ccccc1 [Benzyl hydrogen phthalate],mean nematode size ln(EXT) (ln),[1]; 0.5 µM,5.72
same,mean nematode size ln(EXT) (ln),[1]; 1 µM,5.73
same,mean nematode size ln(EXT) (ln),[1]; 5 µM,5.79
same,mean nematode size ln(EXT) (ln),[1]; 10 µM,5.84
same,mean nematode size ln(EXT) (ln),[1]; 50 µM,5.73
same,mean nematode size ln(EXT) (ln),[1]; 100 µM,5.67
same,mean nematode size ln(EXT) (ln),[1]; 200 µM,5.74
same,lowest effective concentration,[2],> 200 µM
CCCCC(CC)COC(=O)CCCCC(=O)OCc1ccccc1 (stereo unspecified) [Benzyloctyl adipate (BOA)],mean nematode size ln(EXT) (ln),[1]; 0.5 µM,5.99
same,mean nematode size ln(EXT) (ln),[1]; 1 µM,5.97
same,mean nematode size ln(EXT) (ln),[1]; 5 µM,6.03
same,mean nematode size ln(EXT) (ln),[1]; 10 µM,6.02
same,mean nematode size ln(EXT) (ln),[1]; 50 µM,5.92
same,mean nematode size ln(EXT) (ln),[1]; 100 µM,5.77
same,mean nematode size ln(EXT) (ln),[1]; 200 µM,5.89
same,lowest effective concentration,[2],> 200 µM
COc1ccc(-c2ccccc2)cc1NNC(=O)OC(C)C [Bifenazate],mean nematode size ln(EXT) (ln),[1]; 0.5 µM,5.62
same,mean nematode size ln(EXT) (ln),[1]; 1 µM,5.82
same,mean nematode size ln(EXT) (ln),[1]; 5 µM,5.8
same,mean nematode size ln(EXT) (ln),[1]; 10 µM,5.93
same,mean nematode size ln(EXT) (ln),[1]; 50 µM,5.25
same,mean nematode size ln(EXT) (ln),[1]; 100 µM,5.68
same,mean nematode size ln(EXT) (ln),[1]; 200 µM,5.87
same,lowest effective concentration,[2],> 200 µM
ClCCOCCCl [Bis(2-chloroethyl)ether],mean nematode size ln(EXT) (ln),[1]; 0.5 µM,5.78
same,mean nematode size ln(EXT) (ln),[1]; 1 µM,6.14
same,mean nematode size ln(EXT) (ln),[1]; 5 µM,5.94
same,mean nematode size ln(EXT) (ln),[1]; 10 µM,5.96
same,mean nematode size ln(EXT) (ln),[1]; 50 µM,5.8
same,mean nematode size ln(EXT) (ln),[1]; 100 µM,5.86
same,mean nematode size ln(EXT) (ln),[1]; 200 µM,5.72
same,lowest effective concentration,[2],> 200 µM
COCCOCCOC [Bis(2-methoxyethyl) ether],mean nematode size ln(EXT) (ln),[1]; 0.5 µM,5.88
same,mean nematode size ln(EXT) (ln),[1]; 1 µM,5.82
same,mean nematode size ln(EXT) (ln),[1]; 5 µM,5.78
same,mean nematode size ln(EXT) (ln),[1]; 10 µM,5.69
same,mean nematode size ln(EXT) (ln),[1]; 50 µM,5.85
same,mean nematode size ln(EXT) (ln),[1]; 100 µM,5.83
same,mean nematode size ln(EXT) (ln),[1]; 200 µM,5.8
same,lowest effective concentration,[2],> 200 µM
OB(O)O [Boric acid],mean nematode size ln(EXT) (ln),[1]; 0.5 µM,6.06
same,mean nematode size ln(EXT) (ln),[1]; 1 µM,6.07
same,mean nematode size ln(EXT) (ln),[1]; 5 µM,6.08
same,mean nematode size ln(EXT) (ln),[1]; 10 µM,6.13
same,mean nematode size ln(EXT) (ln),[1]; 50 µM,6.14
same,mean nematode size ln(EXT) (ln),[1]; 100 µM,6.18
same,mean nematode size ln(EXT) (ln),[1]; 200 µM,5.95
same,lowest effective concentration,[2],> 200 µM
CCC(C)n1c(=O)[nH]c(C)c(Br)c1=O (stereo unspecified) [Bromacil],mean nematode size ln(EXT) (ln),[1]; 0.5 µM,6.06
same,mean nematode size ln(EXT) (ln),[1]; 1 µM,6.23
same,mean nematode size ln(EXT) (ln),[1]; 5 µM,6.18
same,mean nematode size ln(EXT) (ln),[1]; 10 µM,6.3
same,mean nematode size ln(EXT) (ln),[1]; 50 µM,6.1
same,mean nematode size ln(EXT) (ln),[1]; 100 µM,6.23
same,mean nematode size ln(EXT) (ln),[1]; 200 µM,5.81
same,lowest effective concentration,[2],> 200 µM
N#Cc1cc(Br)c(O)c(Br)c1 [Bromoxynil],mean nematode size ln(EXT) (ln),[1]; 0.5 µM,5.85
same,mean nematode size ln(EXT) (ln),[1]; 1 µM,5.95
same,mean nematode size ln(EXT) (ln),[1]; 5 µM,5.86
same,mean nematode size ln(EXT) (ln),[1]; 10 µM,5.91
same,mean nematode size ln(EXT) (ln),[1]; 50 µM,5.84
same,mean nematode size ln(EXT) (ln),[1]; 100 µM,5.95
same,mean nematode size ln(EXT) (ln),[1]; 200 µM,5.67
same,lowest effective concentration,[2],> 200 µM
CS(=O)(=O)OCCCCOS(C)(=O)=O [Busulfan],mean nematode size ln(EXT) (ln),[1]; 0.5 µM,5.98
same,mean nematode size ln(EXT) (ln),[1]; 1 µM,5.93
same,mean nematode size ln(EXT) (ln),[1]; 5 µM,5.94
same,mean nematode size ln(EXT) (ln),[1]; 10 µM,5.95
same,mean nematode size ln(EXT) (ln),[1]; 50 µM,5.98
same,mean nematode size ln(EXT) (ln),[1]; 100 µM,5.94
same,mean nematode size ln(EXT) (ln),[1]; 200 µM,5.8
same,lowest effective concentration,[2],> 200 µM
C=CCOC(=O)C(C)(C)OC(=O)c1cc(-n2c(=O)cc(C(F)(F)F)n(C)c2=O)ccc1Cl [Butafenacil],mean nematode size ln(EXT) (ln),[1]; 0.5 µM,5.9
same,mean nematode size ln(EXT) (ln),[1]; 1 µM,5.89
same,mean nematode size ln(EXT) (ln),[1]; 5 µM,5.87
same,mean nematode size ln(EXT) (ln),[1]; 10 µM,5.88
same,mean nematode size ln(EXT) (ln),[1]; 50 µM,5.84
same,mean nematode size ln(EXT) (ln),[1]; 100 µM,5.92
same,mean nematode size ln(EXT) (ln),[1]; 200 µM,5.94
same,lowest effective concentration,[2],> 200 µM
"CCOC(=O)CCC(=O)OCC [Butanedioic acid, diethyl ester]",mean nematode size ln(EXT) (ln),[1]; 0.5 µM,5.83
same,mean nematode size ln(EXT) (ln),[1]; 1 µM,5.91
same,mean nematode size ln(EXT) (ln),[1]; 5 µM,5.87
same,mean nematode size ln(EXT) (ln),[1]; 10 µM,5.89
same,mean nematode size ln(EXT) (ln),[1]; 50 µM,5.9
same,mean nematode size ln(EXT) (ln),[1]; 100 µM,5.98
same,mean nematode size ln(EXT) (ln),[1]; 200 µM,5.75
same,lowest effective concentration,[2],> 200 µM
CCCC(=O)O [Butanoic acid],mean nematode size ln(EXT) (ln),[1]; 0.5 µM,5.86
same,mean nematode size ln(EXT) (ln),[1]; 1 µM,5.86
same,mean nematode size ln(EXT) (ln),[1]; 5 µM,5.86
same,mean nematode size ln(EXT) (ln),[1]; 10 µM,5.86
same,mean nematode size ln(EXT) (ln),[1]; 50 µM,5.94
same,mean nematode size ln(EXT) (ln),[1]; 100 µM,6
same,mean nematode size ln(EXT) (ln),[1]; 200 µM,5.71
same,lowest effective concentration,[2],> 200 µM
CCCCOC(=O)c1ccccc1C(=O)OCc1ccccc1 [Butyl benzyl phthalate],mean nematode size ln(EXT) (ln),[1]; 0.5 µM,5.93
same,mean nematode size ln(EXT) (ln),[1]; 1 µM,5.94
same,mean nematode size ln(EXT) (ln),[1]; 5 µM,6.01
same,mean nematode size ln(EXT) (ln),[1]; 10 µM,5.98
same,mean nematode size ln(EXT) (ln),[1]; 50 µM,6.17
same,mean nematode size ln(EXT) (ln),[1]; 100 µM,5.76
same,mean nematode size ln(EXT) (ln),[1]; 200 µM,5.67
same,lowest effective concentration,[2],> 200 µM
CCCCc1ccccc1 [Butylbenzene],mean nematode size ln(EXT) (ln),[1]; 0.5 µM,5.65
same,mean nematode size ln(EXT) (ln),[1]; 1 µM,5.67
same,mean nematode size ln(EXT) (ln),[1]; 5 µM,5.69
same,mean nematode size ln(EXT) (ln),[1]; 10 µM,5.67
same,mean nematode size ln(EXT) (ln),[1]; 50 µM,5.53
same,mean nematode size ln(EXT) (ln),[1]; 100 µM,5.6
same,mean nematode size ln(EXT) (ln),[1]; 200 µM,5.75
same,lowest effective concentration,[2],> 200 µM
Cn1c(=O)c2c(ncn2C)n(C)c1=O [Caffeine],mean nematode size ln(EXT) (ln),[1]; 0.5 µM,5.87
same,mean nematode size ln(EXT) (ln),[1]; 1 µM,5.94
same,mean nematode size ln(EXT) (ln),[1]; 5 µM,5.87
same,mean nematode size ln(EXT) (ln),[1]; 10 µM,5.91
same,mean nematode size ln(EXT) (ln),[1]; 50 µM,5.94
same,mean nematode size ln(EXT) (ln),[1]; 100 µM,5.85
same,mean nematode size ln(EXT) (ln),[1]; 200 µM,5.75
same,lowest effective concentration,[2],> 200 µM
O=C1CCCCCN1 [Caprolactam],mean nematode size ln(EXT) (ln),[1]; 0.5 µM,5.8
same,mean nematode size ln(EXT) (ln),[1]; 1 µM,5.81
same,mean nematode size ln(EXT) (ln),[1]; 5 µM,5.84
same,mean nematode size ln(EXT) (ln),[1]; 10 µM,5.87
same,mean nematode size ln(EXT) (ln),[1]; 50 µM,5.88
same,mean nematode size ln(EXT) (ln),[1]; 100 µM,5.55
same,mean nematode size ln(EXT) (ln),[1]; 200 µM,5.68
same,lowest effective concentration,[2],> 200 µM
NC(=O)N1c2ccccc2C=Cc2ccccc21 [Carbamazepine],mean nematode size ln(EXT) (ln),[1]; 0.5 µM,5.86
same,mean nematode size ln(EXT) (ln),[1]; 1 µM,5.85
same,mean nematode size ln(EXT) (ln),[1]; 5 µM,5.88
same,mean nematode size ln(EXT) (ln),[1]; 10 µM,5.83
same,mean nematode size ln(EXT) (ln),[1]; 50 µM,5.88
same,mean nematode size ln(EXT) (ln),[1]; 100 µM,5.85
same,mean nematode size ln(EXT) (ln),[1]; 200 µM,5.67
same,lowest effective concentration,[2],> 200 µM
CNC(=O)Oc1cccc2ccccc12 [Carbaryl],mean nematode size ln(EXT) (ln),[1]; 0.5 µM,5.78
same,mean nematode size ln(EXT) (ln),[1]; 1 µM,5.79
same,mean nematode size ln(EXT) (ln),[1]; 5 µM,5.6
same,mean nematode size ln(EXT) (ln),[1]; 10 µM,5.71
same,mean nematode size ln(EXT) (ln),[1]; 50 µM,5.83
same,mean nematode size ln(EXT) (ln),[1]; 100 µM,5.72
same,mean nematode size ln(EXT) (ln),[1]; 200 µM,5.67
same,lowest effective concentration,[2],> 200 µM
CC1=C(C(=O)Nc2ccccc2)SCCO1 [Carboxin],mean nematode size ln(EXT) (ln),[1]; 0.5 µM,5.77
same,mean nematode size ln(EXT) (ln),[1]; 1 µM,5.9
same,mean nematode size ln(EXT) (ln),[1]; 5 µM,5.83
same,mean nematode size ln(EXT) (ln),[1]; 10 µM,5.85
same,mean nematode size ln(EXT) (ln),[1]; 50 µM,5.84
same,mean nematode size ln(EXT) (ln),[1]; 100 µM,5.62
same,mean nematode size ln(EXT) (ln),[1]; 200 µM,5.9
same,lowest effective concentration,[2],> 200 µM
